This note sets out measurements from ChEMBL document CHEMBL1201862, “PubChem BioAssay data set” (2004).

Among the test systems are HCT-116; ACHN; SN12C; NCI-H23; M14; OVCAR-8; RPMI-8226; CCRF-CEM; HT-29; 786-0; U-251; MDA-N; MDA-MB-231; Malme-3M; PC-3; NCI/ADR-RES; OVCAR-3; UACC-257; LOX IMVI; SK-OV-3.
What all share (assay): inhibition of tumour cell growth, NCI panel, 48 h

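Each compound was tested at five concentrations against cells in 96-well plates for 48 hours. Abbreviation: GI50, concentration required for 50% inhibition of growth.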 Activity calls are given as the source filed them. Cut-off read from the data, not from the text of the source: active = GI50 up to about 1.1 µM and inactive = higher.

With `N#C[BH2-][n+]1cn(C2CC(O)C(COP(=O)(O)OC3CC(n4ccc(N)nc4=O)OC3CO)O2)c2nc(N)[nH]c(=O)c21` (stereo not drawn), the GI50 in the assay with HCT-116, in the assay with ACHN, in the assay on SN12C, in the assay with NCI-H23, with M14 and in the assay with OVCAR-8 was > 100 µM (inactive) throughout. For the same compound, the GI50 with RPMI-8226, in the assay on CCRF-CEM, in the assay with HT-29, in the assay on 786-0, in the assay on U-251 and in the assay on MDA-N was > 100 µM (inactive) each time. The GI50 with MDA-MB-231, with Malme-3M, in the assay with PC-3, in the assay on NCI/ADR-RES, in the assay with OVCAR-3 and with UACC-257 was > 100 µM (inactive) in each case.
Take `Clc1ccc(OCc2nn3c(CCc4nnc5sc(COc6ccc(Cl)cc6)nn45)nnc3s2)cc1`: the GI50 in the assay with LOX IMVI is 37.2 µM (inactive); in the assay with HCT-116 it was 21.9 µM (inactive); in the assay with ACHN, 15.1 µM (inactive); in the assay with NCI-H23, 15.3 µM (inactive); in the assay on M14 it was 33.7 µM (inactive); in the assay on OVCAR-8, 14.5 µM (inactive). For the same compound, the GI50 in the assay with RPMI-8226 was 17.3 µM (inactive); in the assay with SK-OV-3 it was 28.8 µM (inactive); in the assay on CCRF-CEM it was 29.1 µM (inactive); with HT-29, 27.8 µM (inactive); in the assay on 786-0, 26.4 µM (inactive); in the assay with U-251 it was 20.7 µM (inactive). The GI50 with MDA-N was 30.3 µM (inactive); with MDA-MB-231, 19.8 µM (inactive); in the assay on PC-3 it was 15.6 µM (inactive); in the assay with NCI/ADR-RES it was 8.15 µM (inactive); in the assay on OVCAR-3, 16 µM (inactive); in the assay on UACC-257, 22.9 µM (inactive).
Regarding `CC(C)(C)OC(=O)NCCC1CN(C(=O)c2ccccc2)c2ccccc21` (stereo not drawn), the GI50 in the assay on HCT-116 is 17.8 µM (inactive); in the assay with ACHN, 32.7 µM (inactive); with NCI-H23, 26.3 µM (inactive); in the assay with M14, 16.7 µM (inactive); with OVCAR-8 it was 25.6 µM (inactive); in the assay with RPMI-8226 it was 19.7 µM (inactive). Further, the GI50 in the assay on SK-OV-3 is > 100 µM (inactive); in the assay with HT-29, 23.2 µM (inactive); in the assay on 786-0, 35.3 µM (inactive); in the assay with U-251, 40 µM (inactive); in the assay with MDA-N, 21.6 µM (inactive); in the assay on MDA-MB-231 it was 40.1 µM (inactive). The GI50 was 28.9 µM (inactive) with Malme-3M; 31.8 µM (inactive) with PC-3; 22.1 µM (inactive) with NCI/ADR-RES; 15.9 µM (inactive) with OVCAR-3; 26.9 µM (inactive) in the assay with UACC-257.
In the case of `Nc1ccc(COC(O)CN2CCCCC2)cc1[N+](=O)[O-]` (stereo not drawn), the GI50 with HCT-116, with ACHN, in the assay on SN12C, in the assay with NCI-H23, with M14 and with OVCAR-8 was > 100 µM (inactive) in each case. The GI50 in the assay on RPMI-8226, in the assay with CCRF-CEM, with HT-29, in the assay on 786-0, in the assay on U-251 and in the assay with MDA-N was > 100 µM (inactive) in each case. Further, the GI50 with MDA-MB-231, in the assay with Malme-3M, with PC-3, in the assay on NCI/ADR-RES, in the assay on OVCAR-3 and in the assay with UACC-257 was > 100 µM (inactive) in each case.
Take `CCOc1cc(CC[N+](C)(C)C)c2c(ccc3ccc(OC)c(OC)c32)c1OC`: the GI50 in the assay with HCT-116 is > 100 µM (inactive); in the assay on ACHN, > 100 µM (inactive); in the assay on SN12C, > 100 µM (inactive); in the assay on NCI-H23 it was > 10 µM (inactive); in the assay with M14, > 100 µM (inactive); with OVCAR-8 it was > 100 µM (inactive). Moreover, the GI50 was 16.8 µM (inactive) in the assay on RPMI-8226; > 100 µM (inactive) in the assay on SK-OV-3; > 100 µM (inactive) in the assay on HT-29; > 100 µM (inactive) with 786-0; > 100 µM (inactive) with U-251; > 100 µM (inactive) in the assay on MDA-N. The GI50 with MDA-MB-231 was > 100 µM (inactive); with Malme-3M it was > 100 µM (inactive); with PC-3 it was > 100 µM (inactive); with NCI/ADR-RES, > 100 µM (inactive); in the assay on OVCAR-3, 53.3 µM (inactive).
As to `O=C(/C=C/c1ccccc1)Oc1cccc(Br)c1`, the GI50 in the assay on LOX IMVI was 29.7 µM (inactive); in the assay on HCT-116, 25.6 µM (inactive); with ACHN, > 100 µM (inactive); in the assay with SN12C it was > 100 µM (inactive); in the assay with NCI-H23, > 100 µM (inactive); in the assay on M14, 78.7 µM (inactive). In addition, the GI50 in the assay with OVCAR-8 was 60.4 µM (inactive); in the assay with RPMI-8226 it was 14.1 µM (inactive); with SK-OV-3, > 100 µM (inactive); in the assay on HT-29, 30.5 µM (inactive); in the assay on 786-0 it was > 100 µM (inactive); in the assay with U-251, 29.5 µM (inactive). Besides, the GI50 in the assay with MDA-N was 96.6 µM (inactive); in the assay with MDA-MB-231 it was > 100 µM (inactive); with PC-3, 93.1 µM (inactive); in the assay with NCI/ADR-RES, 60.1 µM (inactive); in the assay on OVCAR-3, 78.2 µM (inactive); in the assay with UACC-257, > 100 µM (inactive).
For the compound `N#CC1(C#N)C2CCCCC23OC(=N)C1(C#N)C(c1ccco1)O3` (stereo not drawn), the GI50 with LOX IMVI is 17.2 µM (inactive); in the assay with HCT-116 it was 17.4 µM (inactive); in the assay on ACHN, 28.5 µM (inactive); with SN12C, 14.8 µM (inactive); with NCI-H23 it was 26.1 µM (inactive); in the assay on M14 it was 20.4 µM (inactive). The GI50 in the assay with OVCAR-8 was 23.2 µM (inactive); with SK-OV-3, > 100 µM (inactive); in the assay on CCRF-CEM it was 10.5 µM (inactive); in the assay with HT-29 it was 26.7 µM (inactive); with 786-0 it was 14.5 µM (inactive); with U-251, > 10 µM (inactive). Moreover, the GI50 with MDA-N is 17.4 µM (inactive); with MDA-MB-231 it was 16.7 µM (inactive); in the assay with Malme-3M it was 23.7 µM (inactive); in the assay on PC-3 it was 23 µM (inactive); in the assay with NCI/ADR-RES it was 44.3 µM (inactive); in the assay with OVCAR-3, 16.1 µM (inactive). For the same compound, in the assay on UACC-257, the GI50 was 17.7 µM (inactive).
Consider `O=C(O)C1=NN(c2ccc(S(=O)(=O)O)cc2)C2(C1)C(Cl)C(=O)N2c1nc2ccccc2s1` (stereo not drawn), for which the GI50 with LOX IMVI is 2.99 µM (inactive); with HCT-116, 16.5 µM (inactive); in the assay with ACHN, 17 µM (inactive); in the assay on SN12C it was 17.8 µM (inactive); in the assay on NCI-H23, 14.4 µM (inactive); in the assay on M14, 15.7 µM (inactive). Also, the GI50 is 17.6 µM (inactive) with OVCAR-8; 13.1 µM (inactive) in the assay on RPMI-8226; 15.6 µM (inactive) in the assay on SK-OV-3; 17.8 µM (inactive) in the assay with HT-29; 16.1 µM (inactive) with 786-0; 15.8 µM (inactive) in the assay on U-251. Besides, the GI50 was 21.4 µM (inactive) in the assay with MDA-N; 19 µM (inactive) in the assay with MDA-MB-231; 20.5 µM (inactive) in the assay on Malme-3M; 16.6 µM (inactive) in the assay with PC-3; 23.9 µM (inactive) with NCI/ADR-RES; 12.8 µM (inactive) in the assay on OVCAR-3. Besides, in the assay with UACC-257, the GI50 is 17.2 µM (inactive).
`C1CSCCSCCSCCSCCS1`: the GI50 with LOX IMVI, in the assay on HCT-116, in the assay on ACHN, in the assay on SN12C, with NCI-H23 and in the assay on M14 was > 100 µM (inactive) each time. Also, the GI50 with OVCAR-8, in the assay with RPMI-8226, with SK-OV-3, in the assay on HT-29, with 786-0 and in the assay on U-251 was > 100 µM (inactive) in each case. Also, the GI50 in the assay on MDA-N, with MDA-MB-231, with PC-3, in the assay on NCI/ADR-RES, in the assay on OVCAR-3 and with UACC-257 was > 100 µM (inactive) throughout.
As to `COc1nc(-c2c[nH]c3ccccc23)cnc1N`, the GI50 was 25.3 µM (inactive) in the assay with LOX IMVI; 21.7 µM (inactive) with HCT-116; 14.2 µM (inactive) with ACHN; 5.87 µM (inactive) in the assay with SN12C; 30.1 µM (inactive) in the assay on M14; 31.5 µM (inactive) in the assay on OVCAR-8. Besides, the GI50 with RPMI-8226 was 1.01 µM (active); with SK-OV-3, 30.9 µM (inactive); in the assay on CCRF-CEM, 0.809 µM (active); in the assay on HT-29, 19.3 µM (inactive); with 786-0, 15.6 µM (inactive); in the assay on U-251 it was 31 µM (inactive). In addition, the GI50 was 18.4 µM (inactive) in the assay on MDA-N; 18.1 µM (inactive) in the assay on MDA-MB-231; 26.5 µM (inactive) in the assay with PC-3; 38.5 µM (inactive) in the assay on NCI/ADR-RES; 39.6 µM (inactive) with OVCAR-3; 22.4 µM (inactive) with UACC-257.
Regarding `COc1ccc2c(c1)CN1C(=N2)CSC1c1cc([N+](=O)[O-])ccc1Cl` (stereo not drawn), the GI50 was 31.3 µM (inactive) with LOX IMVI; 27.2 µM (inactive) in the assay on HCT-116; 44.7 µM (inactive) in the assay with ACHN; 65.6 µM (inactive) in the assay with SN12C; 29 µM (inactive) in the assay on NCI-H23; 31.6 µM (inactive) in the assay with M14. Further, the GI50 with OVCAR-8 was 48.8 µM (inactive); with RPMI-8226, 21 µM (inactive); with SK-OV-3, 45.3 µM (inactive); in the assay with HT-29, 24.7 µM (inactive); in the assay on 786-0, 37.9 µM (inactive); in the assay with U-251 it was 40.6 µM (inactive). In addition, the GI50 in the assay with MDA-N was 17.8 µM (inactive); in the assay on MDA-MB-231, 54.5 µM (inactive); in the assay with Malme-3M, 55.8 µM (inactive); in the assay with PC-3, 36.1 µM (inactive); in the assay on NCI/ADR-RES, 25.1 µM (inactive); with UACC-257 it was 38.1 µM (inactive).
